# From US10927123B2, “Modulators of the beta-3 adrenergic receptor useful for the treatment or prevention of disorders related thereto” (Arena Pharmaceuticals, Inc., priority 2016, dated 2021)
# Molecular target: Beta-3 Adrenergic Receptor (Homo sapiens (Human), UniProt P13945)
# Assay: HTRF cAMP antagonist assay (IC50 determination)
# Format: cell-based
# Conditions: CHO-K1 cells stably expressing recombinant receptor; antagonism of isoproterenol at EC90; cAMP readout
# Procedure, shortened: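 CHO-K1 cells stably expressing the recombinant receptor were preincubated with compound (10-point, 5-fold dilutions; top final typically 10 or 100 μM) in PBS with 1 mM IBMX, then stimulated with isoproterenol at its EC90 for 1 h at room temperature. cAMP was read by HTRF against an on-plate standard curve.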
# Chain of Beta-3 Adrenergic Receptor (P13945 whole entry, species assumed): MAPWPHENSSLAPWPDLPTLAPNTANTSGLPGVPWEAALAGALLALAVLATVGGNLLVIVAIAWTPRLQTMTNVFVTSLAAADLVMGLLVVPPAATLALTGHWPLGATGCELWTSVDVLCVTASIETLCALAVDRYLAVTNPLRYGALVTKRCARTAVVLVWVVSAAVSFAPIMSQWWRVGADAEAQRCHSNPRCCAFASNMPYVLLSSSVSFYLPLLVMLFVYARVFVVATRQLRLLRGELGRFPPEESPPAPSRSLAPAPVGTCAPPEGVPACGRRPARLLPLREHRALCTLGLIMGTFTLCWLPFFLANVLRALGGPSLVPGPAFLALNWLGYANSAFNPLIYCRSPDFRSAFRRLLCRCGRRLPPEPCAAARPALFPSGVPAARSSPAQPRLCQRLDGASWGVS
row,SMILES,IC50 [nM]
1,"O=S(=O)(c1cccc(OC[C@@H](O)CN[C@H]2COC3(CCN(S(=O)(=O)c4c[nH]c5ccccc45)CC3)C2)c1)C1CC1 [Compound 308, (S)-1-((R)-8-(1H-indol-3-ylsulfonyl)-1-oxa-8-azaspiro[4.5]decan-3-ylamino)-3-(3-(cyclopropylsulfonyl)phenoxy)propan-2-ol]",34.5
2,"CS(=O)(=O)c1cccc(OC[C@@H](O)CN[C@H]2COC3(CCN(S(=O)(=O)c4c[nH]c5ccccc45)CC3)C2)c1 [Compound 311, (S)-1-((R)-8-(1H-indol-3-ylsulfonyl)-1-oxa-8-azaspiro[4.5]decan-3-ylamino)-3-(3-(methylsulfonyl)phenoxy)propan-2-ol]",43.5
3,"COCS(=O)(=O)c1cccc(OC[C@@H](O)CN[C@H]2COC3(CCN(S(=O)(=O)c4c[nH]c5ccccc45)CC3)C2)c1 [Compound 312, (S)-1-((R)-8-(1H-indol-3-ylsulfonyl)-1-oxa-8-azaspiro[4.5]decan-3-ylamino)-3-(3-(methoxymethylsulfonyl)phenoxy)propan-2-ol]",31.5
4,"O=C1Cc2cc(S(=O)(=O)N3CCC4(CC3)C[C@@H](NC[C@H](O)COc3cccc(S(=O)(=O)C5CC5)c3)CO4)cnc2N1 [Compound 313, 5-((R)-3-((S)-3-(3-(cyclopropylsulfonyl)phenoxy)-2-hydroxypropylamino)-1-oxa-8-azaspiro[4.5]decan-8-ylsulfonyl)-1H-pyrrolo[2,3-b]pyridin-2(3H)-one]",141
5,"CCn1cc(S(=O)(=O)N2CCC3(CC2)C[C@@H](NC[C@H](O)COc2cccc(S(=O)(=O)C4CC4)c2)CO3)c(=O)c2cc(F)ccc21 [Compound 314, 3-((R)-3-((S)-3-(3-(cyclopropylsulfonyl)phenoxy)-2-hydroxypropylamino)-1-oxa-8-azaspiro[4.5]decan-8-ylsulfonyl)-1-ethyl-6-fluoroquinolin-4(1H)-one]",270
6,"CCn1cc(S(=O)(=O)N2CCC3(CC2)C[C@@H](NC[C@H](O)COc2cccc(S(=O)(=O)C4CC4)c2)CO3)c(=O)c2ccc(F)cc21 [Compound 316, 3-((R)-3-((S)-3-(3-(cyclopropylsulfonyl)phenoxy)-2-hydroxypropylamino)-1-oxa-8-azaspiro[4.5]decan-8-ylsulfonyl)-1-ethyl-7-fluoroquinolin-4(1H)-one]",63.8
7,"CCn1cc(S(=O)(=O)N2CCC3(CC2)C[C@@H](NC[C@H](O)COc2cccc(S(=O)(=O)C4CC4)c2)CO3)c(=O)c2cc(C)ccc21 [Compound 317, 3-((R)-3-((S)-3-(3-(cyclopropylsulfonyl)phenoxy)-2-hydroxypropylamino)-1-oxa-8-azaspiro[4.5]decan-8-ylsulfonyl)-1-ethyl-6-methylquinolin-4(1H)-one]",104
8,"CCn1cc(S(=O)(=O)N2CCC3(CC2)C[C@@H](NC[C@H](O)COc2cccc(S(=O)(=O)C4CC4)c2)CO3)c(=O)c2ccc(C)cc21 [Compound 318, 3-((R)-3-((S)-3-(3-(cyclopropylsulfonyl)phenoxy)-2-hydroxypropylamino)-1-oxa-8-azaspiro[4.5]decan-8-ylsulfonyl)-1-ethyl-7-methylquinolin-4(1H)-one]",95.2
9,"CC(C)S(=O)(=O)c1cccc(OC[C@@H](O)CN[C@H]2COC3(CCN(S(=O)(=O)c4cnc5c(F)cccc5c4O)CC3)C2)c1 [Compound 323, 8-fluoro-3-((R)-3-((S)-2-hydroxy-3-(3-(isopropylsulfonyl)phenoxy)propylamino)-1-oxa-8-azaspiro[4.5]decan-8-ylsulfonyl)quinolin-4-ol]",49.6
10,"O=S(=O)(c1cccc(OC[C@@H](O)CN[C@H]2COC3(CCN(S(=O)(=O)c4cnc5ccc(F)cc5c4O)CC3)C2)c1)C1CC1 [Compound 325, 3-((R)-3-((S)-3-(3-(cyclopropylsulfonyl)phenoxy)-2-hydroxypropylamino)-1-oxa-8-azaspiro[4.5]decan-8-ylsulfonyl)-6-fluoroquinolin-4-ol]",34
11,"O=S(=O)(c1cccc(OC[C@@H](O)CN[C@H]2COC3(CCN(S(=O)(=O)c4cnc5c(F)cccc5c4O)CC3)C2)c1)C1CC1 [Compound 328, 3-((R)-3-((S)-3-(3-(cyclopropylsulfonyl)phenoxy)-2-hydroxypropylamino)-1-oxa-8-azaspiro[4.5]decan-8-ylsulfonyl)-8-fluoroquinolin-4-ol]",35.4
12,"Cc1ccc2c(O)c(S(=O)(=O)N3CCC4(CC3)C[C@@H](NC[C@H](O)COc3cccc(S(=O)(=O)C5CC5)c3)CO4)cnc2c1 [Compound 330, 3-((R)-3-((S)-3-(3-(cyclopropylsulfonyl)phenoxy)-2-hydroxypropylamino)-1-oxa-8-azaspiro[4.5]decan-8-ylsulfonyl)-7-methylquinolin-4-ol]",70.1
13,"CCn1cc(S(=O)(=O)N2CCC3(CC2)C[C@@H](NC[C@H](O)COc2cccc(S(=O)(=O)C(C)C)c2)CO3)c(=O)c2ccccc21 [Compound 332, 1-ethyl-3-((R)-3-((S)-2-hydroxy-3-(3-(isopropylsulfonyl)phenoxy)propylamino)-1-oxa-8-azaspiro[4.5]decan-8-ylsulfonyl)quinolin-4(1H)-one]",42.3
14,"CS(=O)(=O)c1ccc(OC[C@@H](O)CNC2COC3(CCN(S(=O)(=O)c4ccc5ccccc5c4)CC3)C2)cc1 (stereo partly drawn) [Compound 334, (2S)-1-(4-(methylsulfonyl)phenoxy)-3-(8-(naphthalen-2-ylsulfonyl)-1-oxa-8-azaspiro[4.5]decan-3-ylamino)propan-2-ol]",79.9

# Stronger by IC50, values ahead:
row,IC50 [nM],SMILES
1,23.9,"CCn1cc(S(=O)(=O)N2CCC3(CC2)C[C@@H](NC[C@H](O)COc2cccc(S(=O)(=O)C4CC4)c2)CO3)c(=O)c2cccc(C)c21 [Compound 315, 3-((R)-3-((S)-3-(3-(cyclopropylsulfonyl)phenoxy)-2-hydroxypropylamino)-1-oxa-8-azaspiro[4.5]decan-8-ylsulfonyl)-1-ethyl-8-methylquinolin-4(1H)-one]"
2,16.5,"O=S(=O)(c1cccc(OC[C@@H](O)CN[C@H]2COC3(CCN(S(=O)(=O)c4cnc5cn[nH]c5c4)CC3)C2)c1)C1CC1 [Compound 319, (S)-1-((R)-8-(1H-pyrazolo[4,3-b]pyridin-6-ylsulfonyl)-1-oxa-8-azaspiro[4.5]decan-3-ylamino)-3-(3-(cyclopropylsulfonyl)phenoxy)propan-2-ol]"
3,11.2,"CS(=O)(=O)c1cccc(OC[C@@H](O)CN[C@H]2COC3(CCN(S(=O)(=O)c4cnc5cc[nH]c5c4)CC3)C2)c1 [Compound 320, (S)-1-((R)-8-(1H-pyrrolo[3,2-b]pyridin-6-ylsulfonyl)-1-oxa-8-azaspiro[4.5]decan-3-ylamino)-3-(3-(methylsulfonyl)phenoxy)propan-2-ol]"
4,17.8,"CC(C)S(=O)(=O)c1cccc(OC[C@@H](O)CN[C@H]2COC3(CCN(S(=O)(=O)c4cnc5cc[nH]c5c4)CC3)C2)c1 [Compound 321, (S)-1-((R)-8-(1H-pyrrolo[3,2-b]pyridin-6-ylsulfonyl)-1-oxa-8-azaspiro[4.5]decan-3-ylamino)-3-(3-(isopropylsulfonyl)phenoxy)propan-2-ol]"
5,21.8,"CCn1cc(S(=O)(=O)N2CCC3(CC2)C[C@@H](NC[C@H](O)COc2cccc(S(C)(=O)=O)c2)CO3)c(=O)c2cccc(F)c21 [Compound 322, 1-ethyl-8-fluoro-3-((R)-3-((S)-2-hydroxy-3-(3-(methylsulfonyl)phenoxy)propylamino)-1-oxa-8-azaspiro[4.5]decan-8-ylsulfonyl)quinolin-4(1H)-one]"
6,22.5,"Cc1ccc2ncc(S(=O)(=O)N3CCC4(CC3)C[C@@H](NC[C@H](O)COc3cccc(S(=O)(=O)C5CC5)c3)CO4)c(O)c2c1 [Compound 324, 3-((R)-3-((S)-3-(3-(cyclopropylsulfonyl)phenoxy)-2-hydroxypropylamino)-1-oxa-8-azaspiro[4.5]decan-8-ylsulfonyl)-6-methylquinolin-4-ol]"
7,17.3,"O=c1c(S(=O)(=O)N2CCC3(CC2)C[C@@H](NC[C@H](O)COc2cccc(S(=O)(=O)C4CC4)c2)CO3)c[nH]c2ccccc12 [Compound 326, 3-((R)-3-((S)-3-(3-(cyclopropylsulfonyl)phenoxy)-2-hydroxypropylamino)-1-oxa-8-azaspiro[4.5]decan-8-ylsulfonyl)quinolin-4(1H)-one]"
8,28.9,"Cc1cccc2c(O)c(S(=O)(=O)N3CCC4(CC3)C[C@@H](NC[C@H](O)COc3cccc(S(=O)(=O)C5CC5)c3)CO4)cnc12 [Compound 327, 3-((R)-3-((S)-3-(3-(cyclopropylsulfonyl)phenoxy)-2-hydroxypropylamino)-1-oxa-8-azaspiro[4.5]decan-8-ylsulfonyl)-8-methylquinolin-4-ol]"
9,29.5,"O=S(=O)(c1cccc(OC[C@@H](O)CN[C@H]2COC3(CCN(S(=O)(=O)c4cnc5cc(F)ccc5c4O)CC3)C2)c1)C1CC1 [Compound 329, 3-((R)-3-((S)-3-(3-(cyclopropylsulfonyl)phenoxy)-2-hydroxypropylamino)-1-oxa-8-azaspiro[4.5]decan-8-ylsulfonyl)-7-fluoroquinolin-4-ol]"
10,30,"CCn1cc(S(=O)(=O)N2CCC3(CC2)C[C@@H](NC[C@H](O)COc2cccc(S(=O)(=O)C(C)C)c2)CO3)c(=O)c2cccc(F)c21 [Compound 331, 1-ethyl-8-fluoro-3-((R)-3-((S)-2-hydroxy-3-(3-(isopropylsulfonyl)phenoxy)propylamino)-1-oxa-8-azaspiro[4.5]decan-8-ylsulfonyl)quinolin-4(1H)-one]"
11,16.3,"CCn1cc(S(=O)(=O)N2CCC3(CC2)C[C@@H](NC[C@H](O)COc2cccc(S(=O)(=O)C4CC4)c2)CO3)c(=O)c2cccc(F)c21 [Compound 333, 3-((R)-3-((S)-3-(3-(cyclopropylsulfonyl)phenoxy)-2-hydroxypropylamino)-1-oxa-8-azaspiro[4.5]decan-8-ylsulfonyl)-1-ethyl-8-fluoroquinolin-4(1H)-one]"
12,14.4,"CS(=O)(=O)Cc1cccc(OC[C@@H](O)CNC2COC3(CCN(S(=O)(=O)c4ccc5ccccc5c4)CC3)C2)c1 (stereo partly drawn) [Compound 335, (2S)-1-(3-(methylsulfonylmethyl)phenoxy)-3-(8-(naphthalen-2-ylsulfonyl)-1-oxa-8-azaspiro[4.5]decan-3-ylamino)propan-2-ol]"
